Measurements: paper PMC12592502, “Unraveling the mechanisms behind the enhanced efficacy of β-lactam-based sideromycins” (Communications Biology, 2025)
Converted amounts (≈) assume the structure as drawn. Like-named read-outs stand apart in the source and are kept apart here. Marks after values point to notes of the source that are not given here.

What was measured:
[1] = test system: E. coli ΔentE; assay: MIC, Keio mutant; type: cell-based, Escherichia coli
Experimental: (§1) All bacterial strains (see description and sources Table S1) were stored at −80 °C, and grown on tryptone soya agar (TSA) at 35 °C. The iron-deprived (ID)-MHBCA (cation-adjusted Muller-Hinton Broth, Becton Dickinson, Mississauga, ON, Canada) medium was prepared as reported by refs. [21],[50]. Briefly, MHBCA was treated with 10% Chelex® 50-100 mesh (Sigma) and stirred for 6 h at room temperature. The resin was removed by filtration. Divalent Ca^2+ (CaCl2), Mg^2+ (MgCl2), and Zn^2+(ZnSO4), were then added in the iron-depleted medium at 22, 12, and 1 μg/ml respectively. Finally, the pH was adjusted to 7.3, and the medium was sterilized with a 0.2-μm filter. Regular MHBCA (i.e., not treated with Chelex®) was used to compare the inhibitory activity of conjugates in iron-sufficient conditions.
(§2) Minimal inhibitory concentrations (MICs) were performed using a broth microdilution technique according to the Clinical and Laboratory Standards Institute (CLSI) guidelines. MICs were determined in MHBCA and in ID-MHBCA. To check the impact of β-lactamases, MICs in the presence of a β-lactamase inhibitor were also determined. The inhibitor was homogenized at 2X the final concentration and added to the bacterial inoculum just before distributing cells into the wells containing the drug dilutions. The final concentration of each inhibitor was 4 μg/mL for clavulanic acid (tested against K. pneumoniae) and 200 μg/mL for 3-aminophenylboronic acid (tested against P. aeruginosa and A. baumannii).

[2] = test system: E. coli ΔtonB; assay: MIC, Keio mutant; type: cell-based, Escherichia coli
Experimental: as §1, §2

[3] = test system: E. coli ΔfecA; assay: MIC, Keio mutant; type: cell-based, Escherichia coli
Experimental: as §1, §2

[4] = test system: E. coli ΔfepA; assay: MIC, Keio mutant; type: cell-based, Escherichia coli
Experimental: as §1, §2

[5] = Antibiotic stability in medium without bacteria
Source text: This method used ultra-performance liquid chromatography-mass spectrometry (UPLC-MS) to measure the amount of test antibiotics remaining in bacterial culture supernatants over time as a means to measure antibiotic uptake by bacterial cells. The method assumes that all antibiotic molecules in the medium (i.e., those that we measured by UPLC-MS) are not bound to the PBP targets in the periplasm, whereas it is assumed that the bactericidal effect (ΔCFU/mL) is correlated to antibiotic uptake and binding to PBPs. The test strain E. coli MC4100 was cultivated overnight in 10 mL of MHBCA or ID-MHBCA at 37 °C with shaking (200 rpm). The next day, the overnight culture was diluted in fresh preheated medium to obtain an OD600 of ~0.7 in MHBCA or ID-MHBCA. The culture was further diluted 1:2 in MHBCA or ID-MHBCA (growth controls), or in MHBCA or ID-MHBCA containing the freshly prepared test antibiotic (2 × the final concentration) to obtain an initial OD600 of ~0.35 (corresponding to 8.5 log10 CFU/mL) and 200 μM of antibiotic (final concentration). Antibiotics were also added to preheated MHBCA or ID-MHBCA without bacteria to control for the stability of the molecules in the medium over time. The moment bacteria were put in contact with the test antibiotic corresponded to the first time point (0 h). For each time point thereafter, 200 μL of sample from both assay and stability test tubes were retrieved and centrifuged at 4 °C for 5 min at 8000 × g. All supernatants were filtered (0.2 μm) and flash frozen in liquid nitrogen for transport. After melting, 2 μL of the samples were injected in the UPLC-MS before the analysis. In parallel, 20 μL of assay and growth control tubes were serially diluted in 96-well plates. Ten μL of each dilution was spotted on TSA plates and incubated for 24 h at 37 °C for CFU counting.
For analysis, the determined concentration in the supernatant was adjusted for the degradation of the molecules measured in the stability control tests for each time point. The final net antibiotic concentration in the medium was calculated at each time point by adding the concentration caused by degradation to the concentration of the test antibiotic measured in the assay tubes containing bacteria. […] A second control was added for the β-lactam LOR and CEF to verify the impact of metabolic waste on the stability of the molecules. The supernatant from the 4-h growth control without antibiotic was collected by filtration 0.2 µm. LOR and CEF were then added to the filtrated supernatant at 200 µM, and degradation was measured after 3 h.

Row | Compound | MIC ([1]; Escherichia coli, ID-MHBCA) [µM] | MIC ([1]; Escherichia coli, MHBCA) [µM] | MIC ([2]; Escherichia coli) [µM] | MIC ([2]; ΔtonB, MHBCA) | MIC ([3]; Escherichia coli, ID-MHBCA) [µM] | MIC ([3]; Escherichia coli, MHBCA) [µM] | MIC ([4]; Escherichia coli, ID-MHBCA) [µM] | MIC ([4]; Escherichia coli, MHBCA) [µM] | MIC ([4]; MHBCA) [µM] | percentage of antibiotic degradation ([5]; 2 h, ID-MHBCA) | percentage of antibiotic degradation ([5]; 2 h, MHBCA) [%] | percentage of antibiotic degradation ([5]; 4 h, ID-MHBCA) [%] | percentage of antibiotic degradation ([5]; 4 h, MHBCA) [%] | percentage of antibiotic degradation ([5]; 6 h, ID-MHBCA) [%] | percentage of antibiotic degradation ([5]; 6 h, MHBCA) [%] | percentage of antibiotic degradation ([5]; 8 h, ID-MHBCA) [%] | percentage of antibiotic degradation ([5]; 8 h, MHBCA) [%] | percentage of antibiotic degradation ([5]; 10 h, ID-MHBCA) [%] | percentage of antibiotic degradation ([5]; 10 h, MHBCA) [%] | percentage of antibiotic degradation ([5]; 24 h, ID-MHBCA) [%] | also measured
1 | CC1(C)SC2C(NC(=O)C(NC(=O)CN(CCCCNC(=O)c3cccc(O)c3O)C(=O)c3cccc(O)c3O)c3ccccc3)C(=O)N2C1C(=O)O (stereo not shown) [BAMP, bis-catechol (azotochelin)-ampicillin] | 0.05 (≈ 0.0375 µg/mL) | 0.2 (≈ 0.15 µg/mL) | 50 (≈ 37.5 µg/mL) | 50^c μM | 0.006 (≈ 0.0045 µg/mL) | ≤ 0.003 | 0.024 (≈ 0.018 µg/mL) | 0.1 to 0.4 (≈ 0.075 to 0.3 µg/mL) | 0.2 (≈ 0.15 µg/mL) | – | – | – | – | – | – | – | – | – | – | – | –
2 | O=C(CN(CCCCNC(=O)c1cccc(O)c1O)C(=O)c1cccc(O)c1O)NC(C(=O)NC1C(=O)N2C(C(=O)O)=C(Cl)CCC12)c1ccccc1 (stereo not shown) [BLOR, bis-catechol (azotochelin)-loracarbef] | 0.012 (≈ 0.009 µg/mL) | 0.05 (≈ 0.0375 µg/mL) | 50 (≈ 37.5 µg/mL) | – | ≤ 0.003 | ≤ 0.003 | 0.012 (≈ 0.009 µg/mL) | 0.1 to 0.4 (≈ 0.075 to 0.3 µg/mL) | 0.1 (≈ 0.075 µg/mL) | NDD | 6 | 3 | 15 | 6 | 15 | 14 | 26 | 9 | 22 | 14 | percentage of antibiotic degradation ([5]; 24 h, MHBCA): 28%
3 | N[C@@H](C(=O)N[C@@H]1C(=O)N2C(C(=O)O)=C(Cl)CS[C@H]12)c1ccccc1 [CEF, cefaclor, reference compound] | 6.3 (≈ 2.32 µg/mL) | 6.3 (≈ 2.32 µg/mL) | 13 (≈ 4.78 µg/mL) | – | 6.3 (≈ 2.32 µg/mL) | 6.3 (≈ 2.32 µg/mL) | 25 (≈ 9.2 µg/mL) | 13 (≈ 4.78 µg/mL) | – | – | – | – | – | – | – | – | – | – | – | – | percentage of antibiotic degradation ([5]; 2 h, 200 μM): 14%
4 | N[C@@H](C(=O)N[C@@H]1C(=O)N2C(C(=O)O)=C(Cl)CC[C@H]12)c1ccccc1 [LOR, loracarbef, reference compound] | – | – | – | 6.3 µM (≈ 2.2 µg/mL) | – | – | – | – | 6.3 (≈ 2.2 µg/mL) | – | – | – | – | – | – | – | – | – | – | – | MIC ([1]; ID-MHBCA): 6.3 µM (≈ 2.2 µg/mL); MIC ([1]; MHBCA): 6.3 µM (≈ 2.2 µg/mL); MIC ([3]; ID-MHBCA): 6.3 µM (≈ 2.2 µg/mL); MIC ([3]; MHBCA): 3.1 µM (≈ 1.08 µg/mL); MIC ([4]; ID-MHBCA): 13 µM (≈ 4.55 µg/mL); percentage of antibiotic degradation [5]: NDD
5 | O=C(CCC(=O)N(CCCCNC(=O)c1cccc(O)c1O)CCCNC(=O)c1cccc(O)c1O)NCCCCCN(O)C(=O)CCCC(=O)NC(C(=O)NC1C(=O)N2C(C(=O)O)=C(Cl)CSC12)c1ccccc1 (stereo not shown) [MCEF, mixed ligand bis-catechol-mono-hydroxamate-cefaclor] | 1.6 (≈ 1.73 µg/mL) | 13 (≈ 14.1 µg/mL) | 25 (≈ 27 µg/mL) | – | > 200 | 13 (≈ 14.1 µg/mL) | > 200 | 13 (≈ 14.1 µg/mL) | – | 5% | 12 | 18 | 25 | 22 | 29 | 31 | 41 | 29 | 38 | 43 | percentage of antibiotic degradation ([5]; 24 h, MHBCA): 54%
